Reference: patent publication US20150011541A1, “PIPECOLATE-SULFONAMIDES FOR TREATMENT OF PSYCHIATRIC DISORDERS” (Max-Planck-Gesellschaft zur Förderung der Wissenschaften …, priority 2011, published 2015)
Where two headings read alike, the source gives them in different places.

Legend:
[1] = target: T1, human FKBP51FK1 (Homo sapiens, UniProt Q13451); experiment: Fluorescence polarization assay, binding to FK1 domain of FKBP51; conditions: for IC50: binding affinity, fluorescence polarization assay; for inhibition at 5 µM: read-out: FKBP 51 FK1 % inhibition
T1 sequence (Q13451 42-130 limits assumed): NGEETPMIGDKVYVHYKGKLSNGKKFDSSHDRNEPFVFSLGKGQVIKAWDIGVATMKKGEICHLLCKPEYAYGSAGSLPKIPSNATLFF

[2] = target: T2, human FKBP52FK1 (Homo sapiens, UniProt Q02790); experiment: Fluorescence polarization assay, binding to FK1 domain of FKBP52; conditions: for IC50: binding affinity, fluorescence polarization assay; for inhibition at 5 µM: read-out: FKBP52 FK1 % inhibition
T2 sequence (Q02790 50-138 limits assumed): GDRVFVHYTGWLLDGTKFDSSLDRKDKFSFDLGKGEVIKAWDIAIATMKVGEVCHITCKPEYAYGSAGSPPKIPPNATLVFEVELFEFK

[3] = at a concentration of 5 μM, library testing

IC50 [1]	IC50 [2]	Molecule	other results
67.1 ± 12.1 µM		COc1ccc(CC[C@@H](OC(=O)[C@@H]2CCCCN2S(=O)(=O)c2cc3ccccc3s2)c2cccc(OCC(=O)O)c2)cc1OC [Compound 5]	inhibition at 5 µM [1, 3]: 12.4%; inhibition at 5 µM [2, 3]: 15.2%
3.06 ± 0.25 µM	17.1 ± 11 µM	COc1ccc(CC[C@@H](OC(=O)[C@@H]2CCCCN2S(=O)(=O)c2cccc(Br)c2)c2cccc(OCC(=O)O)c2)cc1OC [Compound 12, 2-(3-((R)-1-((S)-1-(3-bromophenylsulfonyl)piperidine-2-carbonyloxy)-3-(3,4-dimethoxyphenyl)propyl)phenoxy)acetic acid]	
18.8 ± 2.4 µM	20.2 ± 3.5 µM	COc1ccc(S(=O)(=O)N2CCCC[C@H]2C(=O)O[C@H](CCc2ccc(OC)c(OC)c2)c2cccc(OCC(=O)O)c2)cc1Cl [Compound 16, 2-(3-((R)-1-((S)-1-(3-chloro-4-methoxyphenylsulfonyl)piperidine-2-carbonyloxy)-3-(3,4-dimethoxyphenyl)propyl)phenoxy)aceticacid]	
16.4 ± 1.7 µM	17.7 ± 1.6 µM	COc1ccc(CC[C@@H](OC(=O)[C@@H]2CCCCN2S(=O)(=O)c2cc(Cl)c(OC)c(Cl)c2)c2cccc(OCC(=O)O)c2)cc1OC [Compound 22, 2-(3-((R)-1-((S)-1-(3,5-dichloro-4-methoxyphenylsulfonyl)piperidine-2-carbonyloxy)-3-(3,4-dimethoxyphenyl)propyl)phenoxy)acetic acid]	
8.9 ± 0.9 µM	15.6 ± 2.2 µM	COc1ccc(CC[C@@H](OC(=O)[C@@H]2CCCCN2S(=O)(=O)c2cc(Cl)c(NC(C)=O)c(Cl)c2)c2cccc(OCC(=O)O)c2)cc1OC [Compound 23, 2-(3-((R)-1-((S)-1-(4-acetamido-3,5-dichlorophenylsulfonyl)piperidine-2-carbonyloxy)-3-(3,4-dimethoxyphenyl)propyl)phenoxy)acetic acid]	
0.456 ± 0.05 µM	0.71 ± 0.1 µM	COc1ccc(CC[C@@H](OC(=O)[C@@H]2CCCCN2S(=O)(=O)c2cc(Cl)c(O)c(Cl)c2)c2cccc(OCCN3CCOCC3)c2)cc1OC [Compound 33, (S)-((R)-3-(3,4-dimethoxyphenyl)-1-(3-(2-morpholinoethoxy)phenyl)propyl)1-(3,5-dichloro-4-hydroxyphenylsulfonyl)piperidine-2-carboxylate]	
12.3 ± 18.9 µM	8.3 ± 6.8 µM	COc1ccc(CC[C@@H](OC(=O)[C@@H]2CCCCN2S(=O)(=O)c2cc(Cl)c(NC(C)=O)c(Cl)c2)c2cccc(OCCN3CCOCC3)c2)cc1OC [Compound 34, (S)-((R)-3-(3,4-dimethoxyphenyl)-1-(3-(2-morpholinoethoxy)phenyl)propyl)1-(4-acetamido-3,5-dichlorophenylsulfonyl)piperidine-2-carboxylate]	

The remaining lines, values behind:

Molecule	IC50 [1]	IC50 [2]	other results
2-(3-((R)-1-((S)-1-(3-cyanophenylsulfonyl)piperidine-2-carbonyloxy)-3-(3,4-dimethoxyphen-yl)propyl)phenoxy)acetic acid [Compound 6]	28.5 ± 9.6 µM	69.9 ± 65.4 µM	
2-(3-((R)-1-((S)-1-(benzo[d]thiazol-5-ylsulfonyl)piperidine-2-carbonyloxy)-3-(3,4-dimethoxy phenyl)propyl)phenoxy)acetic acid [Compound 3]	11.6 ± 1.1 µM	32.5 ± 3.5 µM	FKBP 51 FK1 % inhibition [1, 3]: 25.5%; FKBP52 FK1 % inhibition [2, 3]: 16.1%
COc1ccc(CC[C@@H](OC(=O)[C@@H]2CCCCN2S(=O)(=O)c2ccc(-c3ncccn3)cc2)c2cccc(OCC(=O)O)c2)cc1OC [Compound 1, 2-(3-((R)-3-(3,4-dimethoxyphenyl)-1-((S)-1-(4-(pyrimidin-2-yl)phenylsulfonyl)piperidine-2-carbonyloxy)propyl)phenoxy)acetic acid]	62.8 ± 10.7 µM		inhibition at 5 µM [1, 3]: 16.3%; inhibition at 5 µM [2, 3]: 15.2%
COc1ccc(CC[C@@H](OC(=O)[C@@H]2CCCCN2S(=O)(=O)c2cccc(Cl)c2)c2cccc(OCC(=O)O)c2)cc1OC [Compound 2]	30.7 ± 15.7 µM	32.8 ± 14.5 µM	inhibition at 5 µM [1]: 17.5%; inhibition at 5 µM [2]: 18%
COc1ccc(CC[C@@H](OC(=O)[C@@H]2CCCCN2S(=O)(=O)c2cccc(F)c2)c2cccc(OCC(=O)O)c2)cc1OC [Compound 11, 2-(3-((R)-3-(3,4-dimethoxyphenyl)-1-((S)-1-(3-fluorophenylsulfonyl)piperidine-2-carbonyloxy)propyl)phenoxy)acetic acid]	18.2 ± 8.8 µM	37.3 ± 13.6 µM	
COc1ccc(CC[C@@H](OC(=O)[C@@H]2CCCCN2S(=O)(=O)c2cc(Cl)cc(Cl)c2)c2cccc(OCC(=O)O)c2)cc1OC [Compound 13, 2-(3-((R)-1-((S)-1-(3,5-dichlorophenylsulfonyl)piperidine-2-carbonyloxy)-3-(3,4-dimethoxy-phenyl)propyl)phenoxy)acetic acid]	22.6 ± 8.2 µM	14.3 ± 1.8 µM	
COc1ccc(CC[C@@H](OC(=O)[C@@H]2CCCCN2S(=O)(=O)c2cc(Cl)c(O)c(Cl)c2)c2cccc(OCC(=O)O)c2)cc1OC [Compound 21, 2-(3-((R)-1-((S)-1-(3,5-dichloro-4-hydroxyphenylsulfonyl)piperidine-2-carbonyloxy)-3-(3,4-dimethoxyphenyl)propyl)phenoxy)acetic acid]	15.1 ± 1.4 µM	56.6 ± 12.2 µM	
COc1ccc(CC[C@@H](OC(=O)[C@@H]2CCCCN2S(=O)(=O)c2cc3c(c([N+](=O)[O-])c2)OCC3)c2cccc(OCC(=O)O)c2)cc1OC [Compound 25, 2-(3-((R)-3-(3,4-dimethoxyphenyl)-1-((S)-1-(7-nitro-2,3-dihydrobenzofuran-5-ylsulfonyl)piperidine-2-carbonyloxy)propyl)phenoxy)acetic acid]	27.2 ± 3.1 µM	43.9 ± 10.1 µM	
COc1ccc(CC[C@@H](OC(=O)[C@@H]2CCCCN2S(=O)(=O)c2ccc3nc(C)sc3c2)c2cccc(OCC(=O)O)c2)cc1OC [Compound 27, 2-(3-((R)-3-(3,4-dimethoxyphenyl)-1-((S)-1-(2-methylbenzo[d]thiazol-6-ylsulfonyl)piperidine-2-carbonyloxy)propyl)phenoxy)acetic acid]	18.4 ± 1.4 µM	26.5 ± 4.9 µM	
COc1ccc(CC[C@@H](OC(=O)[C@@H]2CCCCN2S(=O)(=O)c2ccc3[nH]c(=O)sc3c2)c2cccc(OCC(=O)O)c2)cc1OC [Compound 28, 2-(3-((R)-3-(3,4-dimethoxyphenyl)-1-((S)-1-(2-oxo-2,3-dihydrobenzo[d]thiazol-6-ylsulfonyl)piperidine-2-carbonyloxy)propyl)phenoxy)aceticacid]	14.7 ± 1.1 µM	66.5 ± 27.1 µM	
COc1ccc(CC[C@@H](OC(=O)[C@@H]2CCCCN2S(=O)(=O)c2ccc3[nH]c(=O)sc3c2)c2cccc(OCCN3CCOCC3)c2)cc1OC [Compound 35, (S)-((R)-3-(3,4-dimethoxyphenyl)-1-(3-(2-morpholinoethoxy)phenyl)propyl)1-(2-oxo-2,3-dihydrobenzo[d]thiazol-6-ylsulfonyl)piperidine-2-carboxylate]	1.3 ± 0.13 µM	2.5 ± 0.38 µM	
COc1ccc(CC[C@@H](OC(=O)[C@@H]2CCCCN2S(=O)(=O)c2ccc(Cl)cc2)c2cccc(OCC(=O)O)c2)cc1OC [Compound 36, 2-(3-((R)-1-((S)-1-(4-chlorophenylsulfonyl)piperidine-2-carbonyloxy)-3-(3,4-dimethoxyphenyl)propyl)phenoxy)acetic acid]			inhibition at 5 µM [1]: 11.7%; inhibition at 5 µM [2]: 15.2%
COc1ccc(CC[C@@H](OC(=O)[C@@H]2CCCCN2S(=O)(=O)c2ccc(F)cc2)c2cccc(OCC(=O)O)c2)cc1OC [Compound 38, 2-(3-((R)-3-(3,4-dimethoxyphenyl)-1-((S)-1-(4-fluorophenylsulfonyl)piperidine-2-carbonyloxy)propyl)phenoxy)acetic acid]			inhibition at 5 µM [1, 3]: 4.3%; inhibition at 5 µM [2, 3]: 6.6%
COc1ccc(CC[C@@H](OC(=O)[C@@H]2CCCCN2S(=O)(=O)c2ccc(C(F)(F)F)cc2)c2cccc(OCC(=O)O)c2)cc1OC [Compound 40, 2-(3-((R)-3-(3,4-dimethoxyphenyl)-1-((S)-1-(4-(trifluoromethyl)phenylsulfonyl)piperidine-2-carbonyloxy)propyl)phenoxy)acetic acid]			inhibition at 5 µM [1, 3]: 8.9%; inhibition at 5 µM [2, 3]: 12.3%
COc1ccc(CC[C@@H](OC(=O)[C@@H]2CCCCN2S(=O)(=O)c2ccc(Oc3ccccc3)cc2)c2cccc(OCC(=O)O)c2)cc1OC [Compound 41, 2-(3-((R)-3-(3,4-dimethoxyphenyl)-1-((S)-1-(4-phenoxyphenylsulfonyl)piperidine-2-carbonyloxy)propyl)phenoxy)acetic acid]			inhibition at 5 µM [1, 3]: 7.2%; inhibition at 5 µM [2, 3]: 15.2%
COc1ccc(CC[C@@H](OC(=O)[C@@H]2CCCCN2S(=O)(=O)c2cccnc2)c2cccc(OCC(=O)O)c2)cc1OC [Compound 42, 2-(3-((R)-3-(3,4-dimethoxyphenyl)-1-((S)-1-(pyridin-3-ylsulfonyl)piperidine-2-carbonyloxy)propyl)phenoxy)acetic acid]			inhibition at 5 µM [1]: 6.6%; inhibition at 5 µM [2]: 9.5%
COc1ccc(CC[C@@H](OC(=O)[C@@H]2CCCCN2S(=O)(=O)c2ccc(Oc3ccccc3)nc2)c2cccc(OCC(=O)O)c2)cc1OC [Compound 43, 2-(3-((R)-3-(3,4-dimethoxyphenyl)-1-((S)-1-(6-phenoxypyridin-3-ylsulfonyl)piperidine-2-carbonyloxy)propyl)phenoxy)acetic acid]			inhibition at 5 µM [1, 3]: 3.7%; inhibition at 5 µM [2, 3]: 11.4%
COc1ccc(CC[C@@H](OC(=O)[C@@H]2CCCCN2S(=O)(=O)c2ccc(-c3ccccc3)nc2)c2cccc(OCC(=O)O)c2)cc1OC [Compound 44, 2-(3-((R)-3-(3,4-dimethoxyphenyl)-1-((S)-1-(6-phenylpyridin-3-ylsulfonyl)piperidine-2-carbonyloxy)propyl)phenoxy)acetic acid]			inhibition at 5 µM [1, 3]: 2.6%; inhibition at 5 µM [2, 3]: 8.5%
